# In patent US8486464B2, “Herbal composition for angina pectoris, method to prepare same and uses thereof” (Tasly Pharmaceutical Group Co. Ltd., priority 2000, dated 2013):
# Where two headings read alike, the source gives them in different places. Marks after values point to notes of the source that are not given here.
# Assays:
# arterial IMT = assay: Hyperlipidemia, DSP vs aspirin: arterial IMT; type: in vivo, human
# Experimental: (§1) 1.1 Sample. 53 patients were divided into 2 groups, at random: 25 patients in Treatment group (DSP group), and 28 patients in Control group (aspirin group).
# (§2) The medication lasted for 6 months. 50 mg enteric aspirin was given to the Control group, 1 time/day orally.
# (§3) 1.3 Standard. a) Measurement of IMT (Arterial tunica intima-tunica media). The horizontal and vertical transactions of the whole-length aorta, carotis communis, exterior artery, and subclavial artery were checked 1, 2, 3, and 6 months after treatment. The thickest part of the IMT was measured and recorded. b) Blood flow included whole blood high-viscosity (hHb), whole blood low-viscosity (hLb), plasma viscosity (hP), Aggregation Index of Red blood cells (AIR) etc. c) Measurement of blood lipoprotein included Total blood Cholesterol (TC) and Triglycerides (TG). D) Statistical treatment by matching t statistic testing.
# blood stasis = assay: Blood flow (Hb, Lb, P, air flow), DSP vs aspirin; type: in vivo, human; set-up: unit not given here
# Excerpt: Hemorrhage at the atherosclerotic lesions induces platelet activation, coronary thrombosis and blood stasis resulting in impaired blood flow. Thus to improve blood flow, chronic administration of the platelet-activation inhibitor aspirin is recommended for patients with angina. The efficacy of DSP and aspirin improving blood flow was compared by evaluating [Hb, Lb, P and air flow]. DSP improves blood flow as efficiently as aspirin. […].
# blood viscosity = assay: Hyperlipidemia, DSP vs aspirin: blood flow; type: in vivo, human
# Experimental: as §1, §2, §3
# thrombosis = assay: Experimental thrombosis in rats (Umetsu method); type: in vivo; settings: experimental thrombo-formation
# Excerpt: • 3. Effects on experimental thrombosis in rats. The Umetsu method is used to carry out the experiment.
# cardiac arrhythmia = assay: Cardiac arrhythmia caused by exogenous free radicals, Langendorff rat heart; set-up: species or system Wistar rat; settings: 1 mg/L verapamil; 50 mg/L DSP; free radicals alone 100%
# Experimental: Langendorff perfusion device was used to pour ferrous sulfate (0.25 mmol/L)/citrate (1.0 mmol/L) into the Wistar rat's artificial heart. The model of free radicals causing heart rhythm irregularity was replicated to observe the effects of DSP.
# (1) Blank group (Normal control). Reperfused with perfusion solution for 45 mins continuously. The change in electrocardiographic pattern was observed.
# (2) SP group. DSP was added in 50 mg/L of perfusion solution and perfused for 45 mins continuously. The change in electrocardiographic pattern was observed.
# (3) Free-radical-damaging group (Free radicals). After pre-perfusing the artificial heart for 15 mins, it was reperfused with perfusion solution containing ferrous sulfate (0.25 mmol/L)/citrate (1.0 mmol/L) for 30 mins continuously. The change in electrocardiographic pattern was observed.
# (4) DSP-protected group (DSP+free radicals): DSP was added into 50 mg/L of perfusion solution and pre-perfused for 15 mins. Ferrous sulfate (0.25 mmol/L/citrate (1.0 mmol/L) was added to the perfusion solution and then infuse for 30 mins continuously. The change in electrocardiographic pattern was observed.
# (5) Verapamil-protected group (verapamil+free radicals). […] of verapamil was added to the perfusion solution and preperfused for 15 mins. […]
# cAMP [1] = assay: cAMP content in rat blood plasma; type: in vivo; settings: Aminophylline 30 mg/kg, DSP 50 mg/kg
# Experimental: • 6. Effects on cAMP content in rat blood plasma. Blood cAMP content was tested by radioimmunoassay.
# cAMP [2] = assay: cAMP content in rabbit blood platelets; type: in vivo; settings: per mg protein; Aminophylline 0.6 mg/kg, DSP 1.0 mg/kg
# Experimental: • 5. Effects on cAMP content in rabbit blood platelets. cAMP content is tested by radioimmunoassay. Protein content is measured by the Hartree Method.
# SOD, MDA = assay: High-fats rabbits: SOD activity and MDA content in blood serum and liver; type: in vivo; settings: 8 weeks, DSP 4 g raw medicine/kg/d, Simvastatin 1 mg/kg/d
# Experimental: Method. The experimental groups were divided into: (1) Normal control group. Normal feeding; (2) High-fats feeding group: high-fats feeding.
# All were fed for 4 weeks. weight and lipoprotein content in the blood were measured. […] Medicine was given to the rabbits through the stomach, according to prescription. The same volume of distilled water was given to the normal control group and high-fats feeding group. Testing ended after 12 weeks.
# serum lipoprotein = assay: High-fats rabbits: lipoprotein in blood serum; type: in vivo; settings: DSP 4 g/kg/day, Simvastatin 1 mg/kg/day
# Experimental: (1) Normal control group (8 rabbits) normal feeding; (2) High-fats group: High-fats feeding. All were fed for 4 weeks. Weight and lipoprotein in the blood were measured. […] High-fats control group, 2. High-dosage of DSP group (4 g dosage/kg/day), 3. […] All are given distilled water except those with special prescriptions and ends after 12 weeks testing.
# liver TG = assay: High-fats rabbits: liver TG and liver coefficient; type: in vivo; settings: DSP 4 g/kg, Simvastatin 1 mg/kg
# Experimental: (§4) 1.1 Experimental Groups. (1) Normal control group (8 rabbits) normal feeding; (2) High-fats group: High-fats feeding. All were fed for 4 weeks. Weight and lipoprotein in the blood were measured. The high-fats group was divided into 4 sub-groups (12 rabbits in each sub-group). 1. High-fats control group, 2. High-dosage of DSP group (4 g dosage/kg/day), 3. Low-dosage DSP group (2 g dosage/kg/day), and 4. […] All are given distilled water except those with special prescriptions and ends after 12 weeks testing.
# aorta AS = assay: High-fats rabbits: aortic lesion and lipoprotein content in aorta; type: in vivo; settings: 8 weeks, DSP 4 g/kg/Day, Simvastatin 1 mg/kg/Day
# Experimental: as §4
# 1.2 Experimental Methods and Standards. (1) Examination of Aortic Lesion. Drugs were given to the animals for 8 weeks, and then the animals were killed. The aortas were removed and the unnecessary membranes and fats discarded. The aortas were cut open along the mid line. One-fifth of the aorta was removed for lipid examination. […] The percentage of the lesion part was calculated, and a grading was given. […] The average thickness of the interior membrane spot plates was measured by microscopic parameter. […] The number of blood vessels with spot plates in the coronary artery and the lesion percentage (lesion percentage=the number of blood vessels with lesion/the total number of blood vessels in each transect X100%) were observed, calculated and graded according to the blocking of the blood vessels with spot plates. The average points were calculated by accumulation.
# Excerpt for insulin: (§5) Method. The 80 patients were divided into 2 groups: the Control group, with normal treatment, and the DSP group, with 10 DSP tablets, 3 times/day. Testing lasted 4 weeks.
# Excerpt for plasma ET: as §5
compound,measurement,setting,value
CCOC(=O)C1=C(COCCN)NC(C)=C(C(=O)OC)C1c1ccccc1Cl (centres unmarked) [Amlodipine],Plasma ET,plasma ET; after treatment (4 weeks),42.6 ± 4.78 ng/L
same,Plasma ET,plasma ET; before treatment,57.2 ± 7.31 ng/L
same,Blood glucose,"insulin; 60 min, after treatment",9.76 ± 0.52 mmol
same,Blood insulin,"insulin; 60 min, after treatment",121.65 ± 1.89 mU/L
same,Blood glucose,"insulin; 60 min, before treatment",9.86 ± 0.65 mmol
same,Blood insulin,"insulin; 60 min, before treatment",122.01 ± 1.91 mU/L
same,Blood glucose,"insulin; 120 min, after treatment",8.01 ± 0.76 mmol
same,Blood insulin,"insulin; 120 min, after treatment",92.56 ± 1.66 mU/L
same,Blood glucose,"insulin; 120 min, before treatment",7.69 ± 0.81 mmol
same,Blood insulin,"insulin; 120 min, before treatment",91.62 ± 1.96 mU/L
same,Blood glucose,"insulin; Empty, after treatment",5.27 ± 0.59 mmol
same,Blood insulin,"insulin; Empty, after treatment",25.31 ± 1.73 mU/L
same,Blood glucose,"insulin; Empty, before treatment",5.19 ± 0.56 mmol
same,Blood insulin,"insulin; Empty, before treatment",25.34 ± 1.74 mU/L
CC(=O)Oc1ccccc1C(=O)O [aspirin],IMT,arterial IMT; after treatment (6 months),2.1 ± 0.7 mm
same,IMT,arterial IMT; before treatment,2.0 ± 0.8 mm
same,Air flow,blood stasis; Post-,1.40 ± 0.10
same,Hb,blood stasis; Post-,4.28 ± 1.07
same,LB,blood stasis; Post-,8.21 ± 0.3
same,P,blood stasis; Post-,1.67 ± 0.7
same,Air flow,blood stasis; Pre-,1.82 ± 0.17
same,LB,blood stasis; Pre-,10.38 ± 1.96
same,P,blood stasis; Pre-,1.89 ± 0.12
same,Hb,"blood stasis; Pre-, 25 patients DSP, 28 aspirin",6.12 ± 1.56
same,AIR,blood viscosity; after treatment (6 months),1.40 ± 0.10
same,η Hb,blood viscosity; after treatment (6 months),4.28 ± 1.07 mpa · s
same,η Lb,blood viscosity; after treatment (6 months),8.21 ± 1.03 mpa · s
same,η P,blood viscosity; after treatment (6 months),1.67 ± 0.07 mpa · s
same,AIR,blood viscosity; before treatment,1.82 ± 0.17
same,η Hb,blood viscosity; before treatment,6.12 ± 1.56 mpa · s
same,η Lb,blood viscosity; before treatment,10.38 ± 1.96 mpa · s
same,η P,blood viscosity; before treatment,1.89 ± 0.12 mpa · s
same,Average aggregation percentage,"thrombosis; Aspirin 30, DSP 50",10.6 ± 2.1
same,Inhibition %,"thrombosis; Aspirin 30, DSP 50 (head: g/kg)",49.2%
COc1ccc(CCN(C)CCCC(C#N)(c2ccc(OC)c(OC)c2)C(C)C)cc1OC (centres unmarked) [verapamil],cardiac arrhythmia (irregularity) percentage,cardiac arrhythmia,71.4%
Cn1c(=O)c2[nH]cnc2n(C)c1=O [Aminophylline],blood plasma cAMP content,cAMP [1]; 30 min after treatment,20.7 ± 3.2 Pmol/ml plasma
same,blood plasma cAMP content,cAMP [1]; 60 min after treatment,21.1 ± 3.8 Pmol/ml plasma
same,cAMP content in rabbit platelets,cAMP [2],15.4 ± 3.9 pmol/mg
CCC(C)(C)C(=O)O[C@H]1C[C@@H](C)C=C2C=C[C@H](C)[C@H](CC[C@@H]3C[C@@H](O)CC(=O)O3)[C@H]21 [Simvastatin],"MDA, blood serum","SOD, MDA",5.63 ± 1.30 nmol/mL
same,"SOD, Liver","SOD, MDA",11.62 ± 0.38*** 10^3 u/g tissue weight
same,"SOD, blood serum","SOD, MDA",816.7 ± 77.2 u/ml
same,"LDC-C, blood serum",serum lipoprotein; 2 weeks after dosage,19.54 ± 5.71 mmol/L
same,"TC, blood serum",serum lipoprotein; 2 weeks after dosage,27.06 ± 4.46 mmol/L
same,"TC/HDL-C, blood serum",serum lipoprotein; 2 weeks after dosage,32.29 ± 7.39
same,"TG, blood serum",serum lipoprotein; 2 weeks after dosage,1.85 ± 0.55 mmol/L
same,"VLDC-C, blood serum",serum lipoprotein; 2 weeks after dosage,6.66 ± 1.65 mmol/L
same,"LDC-C, blood serum",serum lipoprotein; 4 weeks after dosage,18.22 ± 3.37 mmol/L
same,"TC, blood serum",serum lipoprotein; 4 weeks after dosage,26.1 ± 3.03 mmol/L
same,"TC/HDL-C, blood serum",serum lipoprotein; 4 weeks after dosage,19.6 ± 4.38
same,"TG, blood serum",serum lipoprotein; 4 weeks after dosage,1.80 ± 0.31 mmol/L
same,"VLDC-C, blood serum",serum lipoprotein; 4 weeks after dosage,6.54 ± 0.74 mmol/L
same,"LDC-C, blood serum",serum lipoprotein; 8 weeks after dosage,17.78 ± 5.69 mmol/L
same,"TC, blood serum",serum lipoprotein; 8 weeks after dosage,26.3 ± 4.40 mmol/L
same,"TC/HDL-C, blood serum",serum lipoprotein; 8 weeks after dosage,22.3 ± 6.54
same,"TG, blood serum",serum lipoprotein; 8 weeks after dosage,2.70 ± 0.77 mmol/L
same,"VLDC-C, blood serum",serum lipoprotein; 8 weeks after dosage,7.30 ± 2.05 mmol/L
same,"LDC-C, blood serum",serum lipoprotein; A/fter dosage,19.69 ± 8.33 mmol/L
same,"TC, blood serum",serum lipoprotein; A/fter dosage,26.92 ± 7.72 mmol/L
same,"TC/HDL-C, blood serum",serum lipoprotein; A/fter dosage,31.68 ± 10.14
same,"TG, blood serum",serum lipoprotein; A/fter dosage,2.04 ± 1.00 mmol/L
same,"VLDC-C, blood serum",serum lipoprotein; A/fter dosage,6.35 ± 1.42 mmol/L
same,"LDC-C, blood serum",serum lipoprotein; B/f testing,0.87 ± 0.21 mmol/L
same,"TC, blood serum",serum lipoprotein; B/f testing,2.27 ± 0.18 mmol/L
same,"TC/HDL-C, blood serum",serum lipoprotein; B/f testing,2.72 ± 0.85
same,"TG, blood serum",serum lipoprotein; B/f testing,0.72 ± 0.15 mmol/L
same,"VLDC-C, blood serum",serum lipoprotein; B/f testing,0.51 ± 0.27 mmol/L
same,Liver Coefficient,liver TG,5.16 ± 0.60 g/100 g weight
same,TC content in aorta,aorta AS,4.93 ± 2.62
